Measured values as given in BindingDB's records for doi:10.3109/14756366.2011.596836 (Artvin Coruh University, 2012).
pKi: −log10 of the molar value.

How the values were obtained:
Assay in all cases: CA Activity Assay
Conditions in all cases: pH 7.4
[1] = target: Carbonic anhydrase 6 (Homo sapiens, UniProt P23280)
Experimental: (§1) The enzymatic reaction, in a total volume of 3.0 mL, contained 1.4-mL 0.05-M Tris SO4 buffer (pH 7.4), 1-mL 3-mM 4-NPA, 0.5-mL H2O and 0.1-mL enzyme solution. A reference measurement was obtained by preparing the same cuvette without enzyme solution. The inhibitory effects of the phenolic compounds were examined. All compounds were tested in triplicate at each concentration used. Different concentrations of the compounds were used.

[2] = target: Carbonic anhydrase 2 (Homo sapiens, UniProt P00918)
Experimental: as §1

[3] = target: Carbonic anhydrase 1 (Homo sapiens, UniProt P00915)
Experimental: as §1

Sequence of Carbonic anhydrase 1 (P00915 whole entry): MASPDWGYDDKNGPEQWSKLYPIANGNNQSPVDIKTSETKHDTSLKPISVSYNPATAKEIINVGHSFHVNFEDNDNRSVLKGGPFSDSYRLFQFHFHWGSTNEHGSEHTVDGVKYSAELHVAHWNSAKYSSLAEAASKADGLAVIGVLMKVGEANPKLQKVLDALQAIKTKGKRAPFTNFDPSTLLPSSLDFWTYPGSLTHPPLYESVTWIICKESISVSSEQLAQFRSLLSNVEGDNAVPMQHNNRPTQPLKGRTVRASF
Sequence of Carbonic anhydrase 6 (P23280 whole entry): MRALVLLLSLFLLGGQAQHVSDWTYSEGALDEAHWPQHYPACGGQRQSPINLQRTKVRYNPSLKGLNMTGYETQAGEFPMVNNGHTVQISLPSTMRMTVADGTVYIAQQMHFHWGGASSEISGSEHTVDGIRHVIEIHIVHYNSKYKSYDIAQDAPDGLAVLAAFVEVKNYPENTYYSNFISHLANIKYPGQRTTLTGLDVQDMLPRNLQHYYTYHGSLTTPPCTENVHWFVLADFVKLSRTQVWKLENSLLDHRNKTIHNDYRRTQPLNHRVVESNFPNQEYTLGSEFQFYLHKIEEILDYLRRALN

Row | pKi [1] | pKi [2] | pKi [3] | SMILES
1 | 4.94 | 5.84 | 4.74 | O=C(c1ccc(O)c(O)c1)c1ccc(O)c(O)c1 [Bis(3,4-dihydroxyphenyl)methanone]
2 | 3.53 | 4.32 | 3.39 | COc1ccc(C(=O)c2ccc(OC)c(OC)c2)cc1OC [hCA inhibitor, 2]
